Laboratory results: ChEMBL document CHEMBL1142884, “Inhibition of horseradish peroxidase catalytic activity by new 3-phenylcoumarin derivatives: synthesis and structure-activity relationships” (Bioorg Med Chem, 2007)

How the values were obtained:
[1] = Inhibition of horseradish peroxidase catalytic activity by luminol-enhanced chemiluminescence assay; design: species or system Armoracia rusticana
[2] = DPPH radical scavenging activity; format: functional

SMILES | IC50 [1] [µM] | IC50 [2] [µM]
O=c1oc2ccc(O)cc2cc1-c1ccccc1O | 24.6 | 24.9
CC(=O)Oc1ccc(-c2cc3cc(OC(C)=O)c(OC(C)=O)cc3oc2=O)cc1OC(C)=O | 28.2 | 

Second part, the molecule after the results:

IC50 [1] [µM] | IC50 [2] [µM] | SMILES
3.4 | 13.2 | O=c1oc2cc(O)c(O)cc2cc1-c1ccc2c(c1)OCO2
1.2 | 9.8 | O=c1oc2cc(O)c(O)cc2cc1-c1ccc(O)c(O)c1
2.8 | 26.8 | O=c1oc2ccc(O)cc2cc1-c1ccc(O)c(O)c1
